{
  "source": "patent US20120148718A1",
  "about": "“METHOD FOR CONDITIONING ANIMAL FEED” (priority 2009, published 2012)",
  "test": "Surface tension of 5% solutions in water (Fisher Surface Tensiomat Model 21)",
  "assay_type": "physicochemical",
  "details": "surfactants, Table 2",
  "method": "The surface tensions of various organic acids and different formulations of the present invention were determined. Solutions were diluted to 5% in water and tested using a Fisher Surface Tensiomat Model 21.\nPolysorbate-80 is allowed only for use in milk replacers and not for feed application. In the European Union ethoxylated castor oil surfactant is allowed for use in all animals. In order to determine a suitable surfactant to replace polysorbate-80, the surface tensions of different PEG ethoxylated castor oil surfactants were tested in 5% solutions.\nThe two best formulations from Example 1 were prepared using polysorbate-80 or castor oil PEG-60. The surface tension of 5% solutions of each formulation in water was determined.",
  "data": [
    {"substance": "Polysorbate-80", "values": [
      {"measurement": "Surface Tension", "value": 40.57, "unit": "dynes/cm"}
    ]}
  ]
}
